According to ChEMBL document CHEMBL1126528, “Synthesis and biological evaluation of a series of HIV-1 protease inhibitors” (Bioorg Med Chem Lett, 1993):

Columns and labels:
MT2 = assay: Concentration required for anti-viral activity (Anti-HIV-IIIB activity) against human T lymphoid (MT-2) cells that are infected with HIV-IIIB virus; assay type: functional, cell-based
[1] = target: Human immunodeficiency virus type 1 protease (Human immunodeficiency virus 1, UniProt Q72874); assay: Concentration required for inhibitory activity against HIV-1 Protease

| SMILES | IC50 (MT2) [nM] | IC50 [1] [nM] |
| --- | --- | --- |
| CC(C)(C)NC(=O)[C@@H]1C[C@@H]2CCCC[C@@H]2CN1C[C@@H](O)[C@H](Cc1ccccc1)NC(=O)[C@H](CC(N)=O)NC(=O)c1ccc2ccccc2n1 | 3 | – |
| CC[C@H](C)[C@H](NC(=O)[C@H](Cc1ccccc1)C[C@@H](O)CN1C[C@H]2CCCC[C@H]2C[C@H]1C(=O)NC(C)(C)C)C(=O)NCc1nc2ccccc2[nH]1 | 21 | 30 |
| CC[C@H](C)[C@H](NC(=O)[C@H](Cc1ccccc1)CC(O)CN1CCC[C@@H]1C(=O)N[C@H](C(=O)OC(C)(C)C)[C@@H](C)CC)C(=O)NCc1nc2ccccc2[nH]1 (some centres undefined) | > 1750 | > 1400 |
| CC[C@H](C)[C@H](NC(=O)[C@H](Cc1ccccc1)CC(O)CN1CCC[C@@H]1C(=O)NC(C)(C)C)C(=O)NCc1nc2ccccc2[nH]1 (some centres undefined) | 490 | 80 |
| CC[C@H](C)[C@H](NC(=O)[C@H](Cc1ccccc1)CC(O)(CO)CN1C[C@H]2CCCC[C@H]2C[C@H]1C(=O)NC(C)(C)C)C(=O)NCc1nc2ccccc2[nH]1 (some centres undefined) | 280 | – |
| CC[C@H](C)[C@H](NC(=O)[C@H](Cc1ccccc1)CC(O)CN1C[C@H]2CCCC[C@H]2C[C@H]1C(=O)NC(C)(C)C)C(=O)OC (some centres undefined) | > 1750 | – |
| CC(C)(C)NC(=O)[C@@H]1C[C@@H]2CCCC[C@@H]2CN1CC(O)C[C@@H](Cc1ccccc1)C(=O)N[C@H]1CCCC[C@@H]1NC(=O)c1ccc2ccccc2n1 (some centres undefined) | 3600 | 70 |
| CC[C@H](C)[C@H](NC(=O)[C@H](Cc1ccccc1)CC(O)(CO)CN(CC(=O)NC(C)(C)C)CC1CCCCC1)C(=O)NCc1nc2ccccc2[nH]1 (some centres undefined) | > 1750 | 140 |
| CC[C@H](C)[C@H](NC(=O)[C@H](Cc1ccccc1)CC(O)CN1CCCCC1C(=O)NC(C)(C)C)C(=O)NCc1nc2ccccc2[nH]1 (some centres undefined) | 480 | 30 |
| CC(C)(C)NC(=O)[C@@H]1C[C@@H]2CCCC[C@@H]2CN1CC(O)C[C@@H](Cc1ccccc1)C(=O)N[C@H]1CCCC[C@@H]1NC(=O)c1cc2ccccc2cn1 (some centres undefined) | 1750 | 70 |
| CC[C@H](C)[C@H](NC(=O)[C@H](CC(C)C)CC(O)CN1C[C@H]2CCCC[C@H]2C[C@H]1C(=O)NC(C)(C)C)C(=O)NCc1nc2ccccc2[nH]1 (some centres undefined) | 31 | 30 |
| CC[C@H](C)[C@H](NC(=O)[C@H](Cc1ccccc1)CC(O)CN1C[C@H]2CCCC[C@H]2C[C@H]1C(=O)NC(C)(C)C)C(=O)NCCc1nc2ccccc2[nH]1 (some centres undefined) | 850 | 130 |
| CN(CC(O)C[C@@H](Cc1ccccc1)C(=O)N[C@H]1CCCC[C@@H]1NC(=O)c1ccc2ccccc2n1)[C@@H](CC1CCCCC1)C(=O)NC(C)(C)C (some centres undefined) | > 1750 | > 1400 |
| CC[C@H](C)[C@H](NC(=O)[C@H](Cc1ccccc1)CC(O)CN1CCCCC1C(=O)NC(C)(C)C)C(=O)NCc1ccccn1 (some centres undefined) | > 1750 | 250 |
| CC[C@H](C)[C@H](NC(=O)[C@H](Cc1ccccc1)CC(O)CN1C[C@H]2CCCC[C@H]2C[C@H]1C(=O)NC(C)(C)C)C(=O)NCc1ccccn1 (some centres undefined) | 310 | 150 |
| CC[C@H](C)[C@H](NC(=O)[C@H](Cc1ccccc1)CC(O)CN1C[C@H]2CCCC[C@H]2C[C@H]1C(=O)NC(C)(C)C)C(=O)NCc1nc2ccccc2[nH]1 (single isomer, unassigned) | 29 | 30 |
